Data on six compounds can be found in PMC12356143 (RSC Medicinal Chemistry, 2025).

Where “and” joins values, the source holds several entries; their conditions need not be identical. Identical values can stand only once.

In one experiment the target is M^pro L50F/E166A/L167F (Severe acute respiratory syndrome coronavirus 2, UniProt P0DTD1, E3429A/L3313F/L3430F). The following applies: for K M / k cat: pH 7.6.
For experiment [1], the target named is SARS-CoV-2 M^pro L50F/E166A/L167F (Severe acute respiratory syndrome coronavirus 2, UniProt P0DTD1, E3429A/L3313F/L3430F). The format is biochemical.

As a reminder, the Km is the concentration of substrate that gives half-maximal velocity. Take 2-Abz-KTSAVLQ↓SGY^(NO2)RKME-OH: at M^pro L50F/E166A/L167F, the Km was determined as 250 µM, the “K M” value was determined as 250 µM and the k cat came to 0.19 ± 0.04 s⁻¹. For 2-Abz-SVTLQ↓SGY^(NO2)R-OH, at M^pro L50F/E166A/L167F, the Km came to 320 µM; the “lower catalytic efficiency of the M^pro triple mutant compared to the WT M^pro” value is around 35 times; the “K M” value stood at 320 µM; the k cat is 0.26 s⁻¹ and 0.26 ± 0.05 s⁻¹. With `COc1cccc2[nH]c(C(=O)N3C[C@H](C(F)(F)F)C[C@H]3C(=O)N[C@H](C#N)C[C@@H]3CCNC3=O)cc12` [compound 1], the “inhibition of L50F/E166A/L167F, result in words” value (from here on “inhibition of L50F/E166A/L167F”) in experiment [1] is “inactive”. With `CC(C)C[C@H](NC(=O)OCc1cccc(F)c1)C(=O)N[C@@H](Cc1cscn1)C(O)S(=O)(=O)O` (some centres unmarked) [compound 2], in experiment [1], the “inhibition of L50F/E166A/L167F” value was “does not significantly alter binding potency”.

For the compound `O=C(NC(Cc1ccccc1)C(=O)NC(CC1CCNC1=O)C(O)S(=O)(=O)O)OCc1cccc(F)c1` (centres unmarked) [compound 3], the “inhibition of L50F/E166A/L167F” value in experiment [1] is “inactive”. As for `COc1cccc2[nH]c(C(=O)NC(CC3CC3)C(=O)NC(CC3CCNC3=O)C(O)S(=O)(=O)O)cc12` (centres unmarked) [compound 4], in experiment [1], the “improvement in inhibition compared to nirmatrelvir” value was “approximately 30 fold”.
